Data reported in US11458189B2, “Cytoprotective drugs” (BALMES TRANSPLANTATION, priority 2017, dated 2022).
Starred links: 1 amine or outer side, 2 acyl side, 3 side chain; linkers in the order of their positions; H or OH if unused. Positions of bridges follow the written chain, without caps; N, C: chain ends. Non-standard residues stand in square brackets, D forms with d. Residues, ends and D or L forms follow the SMILES beside them. ξ: configuration not given here. *: point of attachment. hTyr(3S-OH,4S-OH,3'-OSO3H) = N[C@H](C(=O)O)[C@H](O)[C@@H](O)c1ccc(O)c(OS(=O)(=O)O)c1; pTerphenylCO(4''-OnC5H11) = CCCCCOc1ccc(-c2ccc(-c3ccc(C(=O)*)cc3)cc2)cc1; Orn(4R-OH,5R-OH) = O=C([C@H](C[C@@H](O)[C@@H](O)N[*:3])N[*:1])[*:2]; hTyr(3S-OH,4S-OH) = N[C@H](C(=O)O)[C@H](O)[C@@H](O)c1ccc(O)cc1; Pro(3S-OH,4S-Me) = C[C@H]1CN[C@H](C(=O)O)[C@H]1O; X1 = CCCCCOc1ccc(-c2cc(-c3ccc(C(=O)*)cc3)no2)cc1; Gln(3R-OH) = NC(=O)C[C@@H](O)[C@H](N)C(=O)O; ξPro(4R-OH) = O=C(O)C1C[C@@H](O)CN1; Hyp = O=C(O)[C@@H]1C[C@@H](O)CN1

Tested on: Human Astrocytes (HA)
Experiment: Oxygen and glucose deprivation followed by replenishment, cell survival (calcein AM), HA
Format: cell-based
Description: Anidulafungin and micafungin were tested on Human Renal Glomerular Endothelial Cells (HRGEC, Innoprot P10665), on Human Renal Proximal Tubular Epithelial Cells (HRPTEpiC, Innoprot P10662), on Human Astrocytes (HA, caltag SC-1800), on Human Cardiac Microvascular Endothelial Cells (HCMEC, Caltag SC-6000), on Human Hepatic Sinusoidal Endothelial Cells (HHSEC, Caltag SC-5000), on Rat Primary Kidney Glomerular Endothelial cells (Cellbiologics, RN-6014G) and on Bovine Brain Microvascular Endothelial Cells (BBMEC, Caltag SC-B100).
In a first phase, these isolated, purified and cryopreserved cells are thawed and multiplied according to the supplier's recommendations in T75 or T175 flasks pre-coated with 2 μg of fibronectin/[…] (CORNING) for HRGEC, HCMEC, HHSEC and BBMEC, or 2 μg poly-L-lysin/cm^2 (Caltag SC-0403) for HRPTEpiC and HA, or 15 mL/flask 175 cm^2 gelatin-based solution (Cellbiologics) in the presence of endothelial cell supplemented growth medium ECM (P60104, INNOPROT, Caltag, SC-1001) for HRGEC, HCMEC, HHSEC, RPKGEC or BBMEC, or astrocyte cell supplemented growth medium AM (Caltag SC-1801) for HA or epithelial cell supplemented growth medium EpiCM (P60106, INNOPROT) for HRPTEpiC, at 37° C. under 5% CO2 and saturated humidity until their confluency. They are then harvested by trypsinization according to the method described by the supplier for exactly 5 minutes and then reseeded in new flasks a maximum of three times.
To carry out the oxygen and glucose deprivation test followed by their replenishment, the cells will be seeded in 96-well black plates with transparent flat bottom (GREINER). Once a sufficient number of cells has been obtained to allow seeding of 2000 to 15000 cells per well of 96-well plates depending on the cell type, the cells are seeded in these 96-well plates previously coated with an extracellular matrix as listed above for the flasks. The cells are cultured for 5 to 8 days according to the cell type, in the presence of the same growth medium as in the flask as described above except for HRGEC and HRPTEpiC for which DMEM (DUTSCHER) with 1 g/L of supplemented glucose is used, at 37° C. under 5% CO2 and saturated humidity to obtain confluency.
On the first day of oxygen and glucose deprivation, (5th, 6th, 7th or 8th day of culture), the culture conditions are drastically changed. The medium of all plates is removed and replaced by DMEM (DUTSCHER) medium without glucose and supplemented only with 1% penicillin-streptomycin (DUTSCHER). Anidulafungin or micafungin dissolved in dimethyl sulfoxide (DMSO) is then added to each well at the desired concentration, resulting in a maximum of 1% DMSO, and the plates are placed under hypoxia at <1% 02 and 5% CO2 at 37° C. for 24 hours of culture. Each compound was tested in a concentration range.
After 24 hours, the growth medium is changed and replaced by a richer medium, DMEM (DUTSCHER) at 1 g/L glucose and 2% FBS (INNOPROT) and 1% penicillin-streptomycin (DUTSCHER). These media will have been pre-equilibrated at 37° C. in advance. The cells are then returned to culture at 37° C. under 20% 02 and 5% CO2 for 22h.
After 22 hours of reoxygenation, the potential protective effect of anidulafungin or micafungin is measured by a cell viability test using calcein AM (CORNING), which is a dye substrate. The calcein AM can easily cross the cell membrane of the viable cells. The AM ester groups mask the part of the molecule that chelates calcium. Once inside the cells, the (non-fluorescent) calcein AM is hydrolyzed to (fluorescent) calcein by endogenous esterases. The resulting calcein molecule binds to calcium inside the cell and remains trapped inside the cell. These molecules emit strong green fluorescence when subjected to […] of a particular wavelength (495 nm). Since dead cells lack esterase activity, only living cells are labelled.
This cell viability test is performed in two steps. […]

[1] = [Anidulafungin] log μM 0.1760913
[2] = [Anidulafungin] log μM 0.7781513
[3] = [Anidulafungin] log μM −0.1249387
[4] = [Anidulafungin] log μM −0.30103
[5] = [Anidulafungin] log μM −0.5228788

## CCCCCOc1ccc(-c2cc(-c3ccc(C(=O)N[C@H]4C[C@@H](O)[C@@H](O)NC(=O)[C@@H]5[C@@H](O)[C@@H](C)CN5C(=O)[C@H]([C@H](O)CC(N)=O)NC(=O)[C@H]([C@H](O)[C@@H](O)c5ccc(O)c(OS(=O)(=O)O)c5)NC(=O)[C@@H]5C[C@@H](O)CN5C(=O)[C@H]([C@@H](C)O)NC4=O)cc3)no2)cc1 [Micafungin, {5-[(1S,2S)-2-[(3S,6S,9S,11R,15S,18S,20R,21R,24S,25S,26S)-3-[(1R)-2-carbamoyl-1-hydroxyethyl]-11,20,21,25-tetrahydroxy-15-[(1R)-1-hydroxyethyl]-26-methyl-2,5,8,14,17,23-hexaoxo-18-[(4-{5-[4-(pentyloxy)phenyl]-1,2-oxazol-3-yl}benzene)amido]-1,4,7,13,16,22-hexaazatricyclo[22.3.0.0]heptacosan-6-yl]-1,2-dihydroxyethyl]-2-hydroxyphenyl}oxidanesulfonic acid] (X1-[Orn(4R-OH,5R-OH)]T[Hyp][hTyr(3S-OH,4S-OH,3'-OSO3H)][Gln(3R-OH)][Pro(3S-OH,4S-Me)]; lactam 1-C)
[Micafungin] log μM 0
  Globalfluo assay 1: 11119980 arbitrary units
  Globalfluo assay 2: 10122420 arbitrary units
  Globalfluo assay 3: 9942897 arbitrary units
  Mean globalfluo: 10395099 arbitrary units
  Survival rate (%): 2%
[Micafungin] log μM 0.4771213
  Globalfluo assay 1: 10184240 arbitrary units
  Globalfluo assay 2: 11122790 arbitrary units
  Globalfluo assay 3: 12211830 arbitrary units
  Mean globalfluo: 11172953 arbitrary units
  Survival rate (%): 6%
[Micafungin] log μM 0.7781513
  Globalfluo assay 1: 12145620 arbitrary units
  Globalfluo assay 2: 12627660 arbitrary units
  Globalfluo assay 3: 12964960 arbitrary units
  Mean globalfluo: 12579413 arbitrary units
  Survival rate (%): 14%
[Micafungin] log μM 0.90309
  Globalfluo assay 1: 12128260 arbitrary units
  Globalfluo assay 2: 10787240 arbitrary units
  Globalfluo assay 3: 13139350 arbitrary units
  Mean globalfluo: 12018283 arbitrary units
  Survival rate (%): 11%
[Micafungin] log μM 1
  Globalfluo assay 1: 15956640 arbitrary units
  Globalfluo assay 2: 14291510 arbitrary units
  Globalfluo assay 3: 16904820 arbitrary units
  Mean globalfluo: 15717657 arbitrary units
  Survival rate (%): 32%
[Micafungin] log μM 1.079181
  Globalfluo assay 1: 12974980 arbitrary units
  Globalfluo assay 2: 13357070 arbitrary units
  Globalfluo assay 3: 13693180 arbitrary units
  Mean globalfluo: 13341743 arbitrary units
  Survival rate (%): 18%
[Micafungin] log μM 1.176091
  Globalfluo assay 1: 15116230 arbitrary units
  Globalfluo assay 2: 14430130 arbitrary units
  Globalfluo assay 3: 15740520 arbitrary units
  Mean globalfluo: 15095627 arbitrary units
  Survival rate (%): 28%
[Micafungin] log μM 1.30103
  Globalfluo assay 1: 11900350 arbitrary units
  Globalfluo assay 2: 13780590 arbitrary units
  Globalfluo assay 3: 15553770 arbitrary units
  Mean globalfluo: 13744903 arbitrary units
  Survival rate (%): 21%
[Micafungin] log μM 1.477121
  Globalfluo assay 1: 14577460 arbitrary units
  Globalfluo assay 2: 14402140 arbitrary units
  Globalfluo assay 3: 13825080 arbitrary units
  Mean globalfluo: 14268227 arbitrary units
  Survival rate (%): 24%
[Micafungin] log μM −0.5228788
  Globalfluo assay 1: 9708125 arbitrary units
  Globalfluo assay 2: 10748420 arbitrary units
  Globalfluo assay 3: 10103750 arbitrary units
  Mean globalfluo: 10186765 arbitrary units
  Survival rate (%): 1%
[Micafungin] log μM −1
  Globalfluo assay 1: 12091240 arbitrary units
  Globalfluo assay 2: 10337500 arbitrary units
  Globalfluo assay 3: 9946542 arbitrary units
  Mean globalfluo: 10791761 arbitrary units
  Survival rate (%): 4%
[Micafungin] log μM −2
  Globalfluo assay 1: 9536623 arbitrary units
  Globalfluo assay 2: 9993250 arbitrary units
  Globalfluo assay 3: 10712930 arbitrary units
  Mean globalfluo: 10080934 arbitrary units
  Survival rate (%): 0%

## CCCCCOc1ccc(-c2ccc(-c3ccc(C(=O)N[C@H]4C[C@@H](O)[C@@H](O)NC(=O)[C@@H]5[C@@H](O)[C@@H](C)CN5C(=O)[C@H]([C@@H](C)O)NC(=O)[C@H]([C@H](O)[C@@H](O)c5ccc(O)cc5)NC(=O)C5C[C@@H](O)CN5C(=O)[C@H]([C@@H](C)O)NC4=O)cc3)cc2)cc1 (stereo partly drawn) [Anidulafungin] ({pTerphenylCO(4''-OnC5H11)}-[Orn(4R-OH,5R-OH)]T[ξPro(4R-OH)][hTyr(3S-OH,4S-OH)]T[Pro(3S-OH,4S-Me)]; lactam 1-C)
[Anidulafungin] log μM 0
  Globalfluo assay 1: 11468420 arbitrary units
  Globalfluo assay 2: 12221770 arbitrary units
  Globalfluo assay 3: 14645590 arbitrary units
  Mean globalfluo: 12778593 arbitrary units
  Survival rate (%): 15%
[1]
  Globalfluo assay 1: 11838960 arbitrary units
  Globalfluo assay 2: 12087610 arbitrary units
  Globalfluo assay 3: 13326480 arbitrary units
  Mean globalfluo: 12417683 arbitrary units
  Survival rate (%): 13%
[Anidulafungin] log μM 0.30103
  Globalfluo assay 1: 13177930 arbitrary units
  Globalfluo assay 2: 13103050 arbitrary units
  Globalfluo assay 3: 13640130 arbitrary units
  Mean globalfluo: 13307037 arbitrary units
  Survival rate (%): 18%
[Anidulafungin] log μM 0.60206
  Globalfluo assay 1: 12006890 arbitrary units
  Globalfluo assay 2: 13270810 arbitrary units
  Globalfluo assay 3: 14798310 arbitrary units
  Mean globalfluo: 13358670 arbitrary units
  Survival rate (%): 18%
[2]
  Globalfluo assay 1: 14108250 arbitrary units
  Globalfluo assay 2: 14242150 arbitrary units
  Globalfluo assay 3: 13880120 arbitrary units
  Mean globalfluo: 14076840 arbitrary units
  Survival rate (%): 22%
[Anidulafungin] log μM 0.90309
  Globalfluo assay 1: 13394210 arbitrary units
  Globalfluo assay 2: 14898570 arbitrary units
  Globalfluo assay 3: 14923380 arbitrary units
  Mean globalfluo: 14405387 arbitrary units
  Survival rate (%): 24%
[3]
  Globalfluo assay 1: 9674527 arbitrary units
  Globalfluo assay 2: 11462560 arbitrary units
  Globalfluo assay 3: 11240740 arbitrary units
  Mean globalfluo: 10792609 arbitrary units
  Survival rate (%): 4%
[4]
  Globalfluo assay 1: 12822290 arbitrary units
  Globalfluo assay 2: 11197900 arbitrary units
  Globalfluo assay 3: 11873360 arbitrary units
  Mean globalfluo: 11964517 arbitrary units
  Survival rate (%): 10%
[5]
  Globalfluo assay 1: 11050980 arbitrary units
  Globalfluo assay 2: 10353030 arbitrary units
  Globalfluo assay 3: 11612880 arbitrary units
  Mean globalfluo: 11005630 arbitrary units
  Survival rate (%): 5%
[Anidulafungin] log μM −1
  Globalfluo assay 1: 9709693 arbitrary units
  Globalfluo assay 2: 10543570 arbitrary units
  Globalfluo assay 3: 12170290 arbitrary units
  Mean globalfluo: 10807851 arbitrary units
  Survival rate (%): 4%
[Anidulafungin] log μM −2
  Globalfluo assay 1: 10301450 arbitrary units
  Globalfluo assay 2: 9760112 arbitrary units
  Globalfluo assay 3: 11132460 arbitrary units
  Mean globalfluo: 10398007 arbitrary units
  Survival rate (%): 2%
